These results are taken from US11013723B1, “Solid forms of a thiazolidinone compound, compositions and methods of use thereof” (Celgene Corporation, priority 2018, dated 2021).

Peptide text beside a SMILES is read from it.

One data set is described as follows: Slurry ripening comparative co-crystal screening (solid form outcome). As to conditions: Compound 1 + coformer; EtOAc saturated with coformer; cycled 25° C./5° C., 10 days. It is filed as physicochemical. Here is the method: In certain embodiments, for example, the method may comprise slurry ripening. […] In certain embodiments, the solvent is 1-butanol or toluene.
In certain embodiments, for example, the saturated coformer solution may be prepared by 1) combining the quantity of coformer in a quantity (for example, about 2 mL) of solvent; 2) mixing the combined quantities at a predetermined temperature (for example 23° C.) for a predetermined period of time (for example at least about 16 hours or less than about 16 hours) to form a suspension; and 3) filtering the suspension (for example filtering the suspension through an 0.2 micron PTFE filter if the solvent is an organic solvent or an 0.45 micron filter if the solvent is an organic solvent mixed with water). In certain embodiments, for example, the solvent may be selected from the group consisting of ethyl alcohol, a solution of ethyl acetate and heptane (for example a solution having an ethyl acetate to heptane at ratio of 2:8 v/v), a solution of acetonitrile and water (for example a solution having a acetonitrile to water ratio of 1:9 v/v), and t-butyl methyl ether (MTBE), or a combination of two or more of the foregoing.
A series of comparative crystallization experiments were conducted with 41 potential coformers and 7 solvents by two different methods.
As to (−)-L-Malic acid, the “Slurry ripening result, EtOAc” value is “PCH”.
The same measure, in the same setting: for `O=C(O)[C@H](O)[C@@H](O)C(=O)O` [(+)-L-Tartaric acid] the value was “F*”.
On the same count and under the same terms, the value for `O=C(O)c1ccc2ccccc2c1O` [1-Hydroxy-2-Naphthoic acid] was “PCH”; that for `COC(=O)[C@H](Cc1ccccc1)NC(=O)[C@@H](N)CC(=O)O` [Aspartame] (H-Asp-Phe-OMe) was “A + F”.

The same data set, now with this note: Compound 1 + coformer; EtOH saturated with coformer; cycled 25° C./5° C., 10 days.
In the case of `O=c1c(O)c(-c2ccc(O)c(O)c2)oc2cc(O)cc(O)c12` [Quercetin], the “Slurry ripening result, EtOH” value is “PCH”.
On the same count and under the same terms, for `NC(=O)c1cccnc1` [Nicotinamide] the value was “PCH”; for (−)-L-Malic acid, “PCH”; for `NC(=O)c1ccncc1` [Isonicotinamide], “B*”.

Staying with this data set, now noted: Compound 1 + coformer; MTBE saturated with coformer; cycled 25° C./5° C., 10 days.
Regarding `NC(N)=O` [Urea], the “Slurry ripening result, MTBE” value is “PCH”.
On the same count and under the same terms, the value for `O=C(O)[C@@H](O)c1ccccc1` [L-(+)-Mandelic acid] was “PCH”; that for `Oc1cccc(O)c1O` [Pyrogallol] was “PCH”; that for `CC1(C(=O)O)CCC(C(=O)O)C1(C)C` (stereo not drawn) [(+)-Camphoric acid] was “PCH”.
On the same count and under the same terms, the value for `O=C(O)c1ccc2ccccc2c1O` [1-Hydroxy-2-Naphthoic acid] was “A*”.

The data set is the same for the next values; noted with them: Compound 1 + coformer; Toluene saturated with coformer; cycled 25° C./5° C., 10 days.
As for `O=C(O)CC(=O)O` [Malonic acid], the “Slurry ripening result, Toluene” value was “F*”.
